Measured values published in patent US4428942A, “Analogs of somatostatin” (The Salk Institute for Biological Studies, priority 1982, dated 1984).
Read-outs that look alike come from different tables or passages of the source. Bridge positions count the residues as written; N and C are the ends. Square brackets hold non-standard residues; d marks the D form. Peptide text beside a SMILES is read from it.

Experiments:
[1] = system: isolated rabbit ileum
Procedure: The analogs are tested in vitro in isolated rabbit ileum using the modified Ussing chamber technique, as described in Amer. J. of Physiol., 225:776-780 (1973). Unidirectional chloride fluxes are determined and used to characterize bi-directional fluxes following the addition of an SS-analog. Changes are measured with varying concentrations, and the potency to inhibit ion transport is quantitated and expressed as a percentage of the potency of SS-14.

[2] = system: secretion of insulin; conditions: rat, in vivo
Procedure: (§1) In vivo experiments are carried out with the analogs, using the procedure described in Brown et al., Metabolism (1976) Vol. 25, pp. 1501-1503, to determine the potency, relative to somatostatin-14, to inhibit the secretion of glucagon and insulin stimulated by the administration of arginine to groups of six rats.

[3] = system: secretion of glucagon; parameters: species or system rats; conditions: rat, in vivo
Procedure: as §1

Compound: des-AA^1,2,[β-Nal^11 ]--SS [Peptide 11]
- Ion Transport (potency to inhibit ion transport expressed as a percentage of the potency of SS-14) ([1]; isolated rabbit ileum, Ussing chamber, chloride fluxes, SS-14 = 100): 107%

Compound: C[C@H](N)C(=O)NCC(=O)N[C@H]1CSSC[C@@H](C(=O)O)NC(=O)[C@H](CO)NC(=O)[C@H]([C@@H](C)O)NC(=O)[C@H](Cc2c[nH]cn2)NC(=O)[C@H]([C@@H](C)O)NC(=O)[C@H](CCCCN)NC(=O)[C@H](Cc2c[nH]c3ccccc23)NC(=O)[C@H](Cc2ccccc2)NC(=O)[C@H](Cc2ccccc2)NC(=O)[C@H](CC(N)=O)NC(=O)[C@H](CCCCN)NC1=O [Peptide 10, [His^11]--SS] (H-AGCKNFFWKTHTSC-OH; disulfide 3-14)
- Insulin (potency to inhibit insulin secretion relative to SS-14) [2]: < 1%
- Glucagon (potency to inhibit glucagon secretion relative to SS-14) [3]: < 1%
- Ion Transport (potency to inhibit ion transport expressed as a percentage of the potency of SS-14) [1]: 48%

Compound: C[C@@H](O)[C@@H]1NC(=O)[C@H](Cc2c[nH]c3ccccc23)NC(=O)[C@H]([C@@H](C)O)NC(=O)[C@H](CCCCN)NC(=O)[C@H](Cc2c[nH]c3ccccc23)NC(=O)[C@H](Cc2ccccc2)NC(=O)[C@H](Cc2ccccc2)NC(=O)[C@H](CC(N)=O)NC(=O)[C@H](CCCCN)NC(=O)[C@@H](N)CSSC[C@@H](C(=O)O)NC(=O)[C@H](CO)NC1=O [Peptide 3, des-AA^1,2,[Trp^11]--SS] (H-CKNFFWKTWTSC-OH; disulfide 1-12)
- Ion Transport (potency to inhibit ion transport expressed as a percentage of the potency of SS-14) [1]: 405%

Compound: C[C@H](N)C(=O)NCC(=O)N[C@H]1CSSC[C@@H](C(=O)O)NC(=O)[C@H](CO)NC(=O)[C@H]([C@@H](C)O)NC(=O)[C@H](CCC(=O)O)NC(=O)[C@H]([C@@H](C)O)NC(=O)[C@H](CCCCN)NC(=O)[C@H](Cc2c[nH]c3ccccc23)NC(=O)[C@H](Cc2ccccc2)NC(=O)[C@H](Cc2ccccc2)NC(=O)[C@H](CC(N)=O)NC(=O)[C@H](CCCCN)NC1=O [Peptide 12, [Glu^11]--SS] (H-AGCKNFFWKTETSC-OH; disulfide 3-14)
- Insulin (potency to inhibit insulin secretion relative to SS-14) [2]: < 1%
- Glucagon (potency to inhibit glucagon secretion relative to SS-14) [3]: < 1%
- Ion Transport (potency to inhibit ion transport expressed as a percentage of the potency of SS-14) [1]: 9%

Compound: C[C@H](N)C(=O)NCC(=O)N[C@H]1CSSC[C@@H](C(=O)O)NC(=O)[C@H](CO)NC(=O)[C@H]([C@@H](C)O)NC(=O)[C@H](CCCNC(=N)N)NC(=O)[C@H]([C@@H](C)O)NC(=O)[C@H](CCCCN)NC(=O)[C@H](Cc2c[nH]c3ccccc23)NC(=O)[C@H](Cc2ccccc2)NC(=O)[C@H](Cc2ccccc2)NC(=O)[C@H](CC(N)=O)NC(=O)[C@H](CCCCN)NC1=O [Peptide 2, [Arg^11]--SS] (H-AGCKNFFWKTRTSC-OH; disulfide 3-14)
- Insulin (potency to inhibit insulin secretion relative to SS-14) [2]: 142%
- Glucagon (potency to inhibit glucagon secretion relative to SS-14) [3]: < 1%
- Ion Transport (potency to inhibit ion transport expressed as a percentage of the potency of SS-14) [1]: 291%

Compound: C[C@@H](O)[C@@H]1NC(=O)[C@H](CCCCN)NC(=O)[C@@H](Cc2c[nH]c3ccccc23)NC(=O)[C@H](Cc2ccccc2)NC(=O)[C@H](Cc2ccccc2)NC(=O)[C@@H](N)CSSC[C@@H](C(=O)O)NC(=O)[C@H](CO)NC(=O)[C@H](Cc2c[nH]c3ccccc23)NC1=O [Peptide 4, des-AA^1,2,4,5,12,[D-Trp^8,Trp^11]--SS] (H-CFF[dW]KTWSC-OH; disulfide 1-9)
- Ion Transport (potency to inhibit ion transport expressed as a percentage of the potency of SS-14) [1]: 37%
